Laboratory results: patent publication US7989613B2, “Inhibition of metallo-β-lactamase by RNA” (priority 2005, dated 2011)
Entries after “also recorded” stand apart in the source; their conditions may differ. Read-outs that look alike come from different tables or passages of the source.

Assays:
[1] = biological target: B. cereus 5/B/6 metallo-β-lactamase (Bacillus cereus, UniProt P14488); settings: for IC50: […] cephalosporin C; for Ki: steady-state kinetics
Procedure: Assay of the purified B. cereus 5/B/6 metallo-β-lactamase and B. cereus 569/H/9 β-lactamase I. Metallo-β-lactamase activity assays using cephalosporin C as substrate were determined as previously reported (Myers and Shaw, 1989). The cephalosporin C absorbance maximum at 260 nm was monitored as a function of time (Davies et al., 1974). One unit of activity is generally defined as the amount of enzyme required to catalyze the hydrolysis of about 1 μmol of β-lactam substrate (cephalosporin C) per minute at 30° C. at pH 7.0. […] The assays were carried out at 30° C. in a 0.1 cm path length quartz cell and the total assay volume was 250 μL.
Reversible inhibition studies for metallo-β-lactamase. To test for reversible inhibition, metallo-β-lactamase was incubated with various concentrations of the possible inhibitors in 50 mM MOPS buffer, pH 7.0. The enzyme activity remaining was determined (Myers and Shaw, 1989).
Various assays were conducted with the 30-mer RNA in the presence of metallo-β-lactamase to determine its inhibition values (IC50, Ki, and Ki′). The 30-mer RNA was tested for inhibition of β-lactamase I and bovine carboxypeptidase A. The 30-mer RNA was also tested for inhibition of metallo-β-lactamase in the presence of Zn^2+.
30-mer RNA. The IC50 value for the 30-mer RNA was determined by measuring the rate of enzymatic hydrolysis of cephalosporin C with different amounts of the 30-mer RNA.

[2] = biological target: B. cereus 569/H/9 β-lactamase I (Bacillus cereus, UniProt P00809); settings: 250 nM of the 30-mer (23×IC50); 1.1 mM benzylpenicillin, 50 mM MOPS pH 7.0; listed as 30-mer
Procedure: The β-lactamase I activity assays used was modified from Davies et al. (1974), which described a general method of β-lactamase I activity assays. Briefly, the enzyme was incubated with 20 mM EDTA (pH 7.0) for 15 min. at room temperature prior to the assay. The enzymatic hydrolysis of 1.1 mM benzylpenicillin in […] MOPS (pH 7.0) and 1 mM EDTA was continuously monitored at 231 nm at 30° C. in a 1-cm pathlength quartz cell in a total volume of 1 mL. One unit of β-lactamase activity was generally defined as the amount of enzyme required to hydrolyze about one μmole of substrate/min. at 30° C. at pH 7.0.
An experiment was performed to test the specificity of inhibition of the 30-mer (Seq ID No.:6). The inhibition of B. cereus 569/H/9 β-lactamase I (Seq ID No.:7) was tested using various concentrations of the 30-mer RNA. The concentration of the substrate (benzylpenicillin) was 1.1 mM in the buffer (50 mM MOPS (pH 7.0)/1 […] EDTA).

[3] = biological target: T1, bovine carboxypeptidase A (Bos taurus, UniProt P00730); test: Inhibition of carboxypeptidase A (hydrolysis of hippuryl-L-phenylalanine, 254 nm); type: biochemical; settings: 250 nM of the 30-mer (23×IC50), 1 mM hippuryl-L-phenylalanine, 0.05 M Tris-HCl pH 7.5, 0.5 M NaCl
T1 construct: purchased Sigma
T1 sequence (P00730 111-419): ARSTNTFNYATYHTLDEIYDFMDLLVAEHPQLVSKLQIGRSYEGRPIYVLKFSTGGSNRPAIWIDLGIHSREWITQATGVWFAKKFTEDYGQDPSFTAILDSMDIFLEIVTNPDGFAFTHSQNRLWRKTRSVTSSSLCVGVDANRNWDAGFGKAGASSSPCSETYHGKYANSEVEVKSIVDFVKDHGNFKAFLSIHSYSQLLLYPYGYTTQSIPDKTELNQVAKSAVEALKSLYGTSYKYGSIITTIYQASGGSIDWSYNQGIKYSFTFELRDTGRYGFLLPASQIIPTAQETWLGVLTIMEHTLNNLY
Procedure: Assay of bovine carboxypeptidase A. The assay of bovine carboxypeptidase A is based on the method of Folk and Schirmer (1963). The rate of hydrolysis of hippuryl-L-phenylalanine is determined by monitoring the increase in absorbance at 254 nm (25° C., pH 7.5). The enzyme was dissolved in 10% lithium chloride to a concentration of 1-3 units per mL. Hippuryl-L-phenylalanine (0.001 M) was dissolved in 0.05 M Tris-HCl, pH 7.5, with 0.5 M sodium chloride. In a 1-cm pathlength cuvette, 1.0 mL of substrate was added and incubated in the spectrophotometer at 25° C. for 3-4 minutes to reach temperature equilibration and to establish blank rate. 50 μL of diluted enzyme was added to record the increase in AbS254.
In addition, the zinc dependent bovine carboxypeptidase A was used to test the specificity of inhibition by this 30-mer. […] The concentration of the substrate (hippuryl-L-phenylalanine) was 1 mM in the buffer (0.05 M Tris-HCl, pH 7.5, with 0.5 M sodium chloride).

Chain of B. cereus 5/B/6 metallo-β-lactamase (P14488 29-256, looked up, natural form): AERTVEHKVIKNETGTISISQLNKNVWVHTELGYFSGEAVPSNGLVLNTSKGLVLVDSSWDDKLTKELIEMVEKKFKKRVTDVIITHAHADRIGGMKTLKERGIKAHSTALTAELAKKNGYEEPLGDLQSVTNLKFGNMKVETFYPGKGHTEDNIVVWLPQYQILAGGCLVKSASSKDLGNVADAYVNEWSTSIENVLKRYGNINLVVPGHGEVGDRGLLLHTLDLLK
Chain of B. cereus 569/H/9 β-lactamase I (P00809 28-306): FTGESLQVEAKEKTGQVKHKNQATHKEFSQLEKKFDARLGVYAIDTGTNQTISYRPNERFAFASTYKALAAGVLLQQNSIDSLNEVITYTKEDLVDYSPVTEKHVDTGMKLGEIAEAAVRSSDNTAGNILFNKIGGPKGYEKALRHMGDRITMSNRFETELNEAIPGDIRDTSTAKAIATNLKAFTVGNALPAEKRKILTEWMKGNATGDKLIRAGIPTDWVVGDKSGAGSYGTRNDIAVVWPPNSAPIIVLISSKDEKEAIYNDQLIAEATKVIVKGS

With “5′-UGGCUGCAGGGUCUGGCCCCCCGUUUGGUG-3′ (UGGCUGCAGGGUCUGGCCCCCCGUUUGGUG; chemistry not given here) [30-mer RNA, 30-mer RNA aptamer selected by twelve rounds of SELEX against B. cereus 5/B/6 metallo-β-lactamase]” as the substance, how does the IC50 ([1]; read-out: IC50 for B. cereus 5/B/6 metallo-β-lactamase in the presence of Zn2+ ions, 50 mM MOPS and 1 mM ZnSO4, pH 7.0) read?
Its IC50 is 19300 nM.

What about the IC50 ([1]; read-out: IC50 for B. cereus 5/B/6 metallo-β-lactamase, 50 mM MOPS pH 7.0, no added Zn2+) of the same substance?
Its IC50 is 11 nM.

And the Ki ([1]; read-out: Ki (dissociation constant for the inhibitor from the enzyme-inhibitor complex), slope replot)?
The Ki was 2 nM.

And the Ki ([1]; read-out: Ki′ (dissociation constant for the inhibitor from the enzyme-substrate-inhibitor complex), intercept replot)?
The Ki was 15 nM.

And the “IC50 / inhibition of metallo-β-lactamase, range in words” value ([1]; stated in words)?
The value was “nanomolar range”.

What about the type of inhibition ([1]; steady-state kinetic study, Lineweaver-Burk plot) of the same substance?
The type of inhibition was “noncompetitive inhibition”.

What about the “effect on the activity of B. cereus 569/H/9 β-lactamase I” value [2] of the same substance?
The value was “no effect”.

What about the “effect on the activity of carboxypeptidase A” value [3] of the same substance?
Its value is “lack of inhibition; also recorded: do not show inhibition”.

And the “effect on the activity of carboxypeptidase A” value ([3]; listed as 30-mer)?
The value was “no effect”.
